Reference: patent publication US11306089B2, “Gamma-carboline compounds for the detection of Tau aggregates” (AC IMMUNE SA, priority 2018, dated 2022)
Marks after values point to notes of the source that are not given here.

Tests used:
MAO-A [1] = biological target: T1, MAO-A (Mus musculus, UniProt Q64133); assay: Binding affinity to MAO-A in mouse whole brain homogenate (3H-Harmine competition); parameters: key to Low affinity to MAO A (IC50 in mouse brain homogenate), grade: − poor; ∘ moderate; + good; ++ very good; +++ excellent; conditions: for fold higher IC50 than compound 18F-1, MAO A in whole mouse brain homogenate: ratio to 18F-1
T1 construct: 20 μg of mouse whole brain or human brain homogenate; from tissue; host or cells: mouse whole brain homogenate
T1 sequence (Q64133 1-526): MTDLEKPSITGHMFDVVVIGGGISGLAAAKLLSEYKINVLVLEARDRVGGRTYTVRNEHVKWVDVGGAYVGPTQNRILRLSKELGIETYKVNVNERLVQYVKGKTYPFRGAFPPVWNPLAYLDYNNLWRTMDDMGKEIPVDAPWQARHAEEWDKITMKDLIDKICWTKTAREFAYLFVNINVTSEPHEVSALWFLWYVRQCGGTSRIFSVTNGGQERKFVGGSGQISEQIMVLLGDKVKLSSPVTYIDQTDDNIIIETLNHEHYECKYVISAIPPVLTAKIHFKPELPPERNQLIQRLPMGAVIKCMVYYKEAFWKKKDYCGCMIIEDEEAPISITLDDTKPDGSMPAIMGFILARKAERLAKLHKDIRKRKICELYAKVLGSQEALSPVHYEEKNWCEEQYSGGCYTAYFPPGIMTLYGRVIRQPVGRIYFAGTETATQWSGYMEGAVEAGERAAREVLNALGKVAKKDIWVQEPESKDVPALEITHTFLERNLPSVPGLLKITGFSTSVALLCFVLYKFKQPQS
Procedure: (§1) Determination of the Binding Affinity to MAO-A in HC Brain Homogenate
(§2) 20 μg of mouse whole brain or human brain homogenate (without AD pathology, HC) was incubated with a dilution series of each test compound (1000 to 0.06 nM) in the presence of 700 Bq of ^3H-labeled MAO-A binder Harmine. The samples were shaken at 110 rpm for 60 min at 37° C. Samples were then filtered through GF/B 96 well filter plates and washed twice with 200 μL assay buffer (PBS containing 0.1% BSA and 2% DMSO). Thereafter, 40 μL Szintillation cocktail was added and the filter plates were sealed. The counts were then counted using a TopCount (Perkin Elmer). Non-specific signal was determined with samples containing ^3H-Harmine in the presence of assay buffer without brain substrate and competitor. Specific binding was calculated by subtracting the non-specific signal from the measured samples signal. The unblocked ^3H-Harmine signal was defined as total binding. IC50 values were calculated by Prism V7 (GraphPad) setting total binding to 100%.

[2] = biological target: amyloid-beta in human Alzheimer disease brain homogenate (Homo sapiens, UniProt P05067); assay: Binding affinity to amyloid-beta in AD brain homogenate (3H-PIB competition); parameters: key to Low affinity to amyloid-beta (IC50 in AD brain homogenate), grade: − poor; ∘ moderate; + good; ++ very good; +++ excellent; conditions: non-radioactive fluorine-19 derivatives; for IC50: human AD brain homogenate
Procedure: Determination of the Binding Affinity to Amyloid-Beta in AD Brain Homogenate 20 μg of human Alzheimer disease brain homogenate was incubated with a dilution series of each test compound (1000 to 0.06 nM) in the presence of 700 Bq of ^3H-labeled beta-amyloid binder PIB. The samples were shaken at 110 rpm for 60 min at 37° C. Samples were then filtered through GF/B 96 well filter plates and washed twice with 200 μL assay buffer (PBS containing 0.1% BSA and 2% DMSO). Thereafter, 40 μL Szintillation cocktail was added and the filter plates were sealed. The counts were then counted using a TopCount (Perkin Elmer). Non-specific signal was determined with samples containing ^3H-labeled beta-amyloid binder in the presence of assay buffer without brain substrate and competitor. Specific binding was calculated by subtracting the non-specific signal from the measured samples signal. The unblocked ^3H-labeled beta-amyloid binder signal was defined as total binding. IC50 values were calculated by Prism V7 (GraphPad) setting total binding to 100%.

MAO-B = biological target: T2, MAO-B (Homo sapiens, UniProt P27338); assay: Binding affinity to MAO-B in human HC brain homogenate (3H-deprenyl competition); parameters: key to Low affinity to MAO B (IC50 in human HC brain homogenate), grade: − poor; ∘ moderate; + good; ++ very good; +++ excellent; conditions: for IC50: 3H-deprenyl competition
T2 construct: 20 μg of human brain homogenate (without AD pathology); from tissue; host or cells: human brain homogenate without AD pathology
T2 sequence (P27338 1-520): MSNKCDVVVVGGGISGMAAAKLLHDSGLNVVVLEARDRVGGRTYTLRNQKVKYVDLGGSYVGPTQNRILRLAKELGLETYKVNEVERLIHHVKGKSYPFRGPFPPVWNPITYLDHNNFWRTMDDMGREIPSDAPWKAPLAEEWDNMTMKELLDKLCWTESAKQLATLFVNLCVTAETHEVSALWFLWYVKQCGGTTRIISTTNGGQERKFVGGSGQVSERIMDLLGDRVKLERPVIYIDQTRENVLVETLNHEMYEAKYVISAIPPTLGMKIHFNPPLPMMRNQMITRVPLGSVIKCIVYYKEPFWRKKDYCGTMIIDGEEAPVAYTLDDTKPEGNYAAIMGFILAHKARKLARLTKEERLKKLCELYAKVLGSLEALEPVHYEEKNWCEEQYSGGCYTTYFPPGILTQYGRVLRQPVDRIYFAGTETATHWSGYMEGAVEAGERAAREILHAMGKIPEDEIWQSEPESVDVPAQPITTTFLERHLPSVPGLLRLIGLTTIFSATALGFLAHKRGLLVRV
Procedure: Determination of the Binding Affinity to MAO-B in HC Brain Homogenate
as §2, with “of” for “of mouse whole brain or”, “pathology)” for “pathology, HC)”, “MAO-B” for “MAO-A”, “Deprenyl.” for “Harmine.”, “^3H-deprenyl” for “^3H-Harmine”

[3] = biological target: Tau in human Alzheimer disease brain homogenate (Homo sapiens, UniProt P10636); assay: Competition binding to Tau in AD brain homogenate (18F-labeled Tau binder); parameters: key to High affinity to Tau (IC50 in AD brain homogenate), grade: − poor; ∘ moderate; + good; ++ very good; +++ excellent; conditions: for IC50 / High affinity to Tau (IC50 in AD brain homogenate), grade: non-radioactive fluorine-19 derivatives
Procedure: Determination of Binding in AD and Healthy Control Brain Homogenates
20 μg of human Alzheimer disease brain homogenate was incubated with a dilution series of each test compound (1000 to 0.06 nM) in the presence of 800 Bq of ^18F-labeled Tau binder. The samples were shaken at 110 rpm for 45 min at 37° C. Samples were then filtered through GF/B 96 well filter plates and washed twice with 300 μL assay buffer (PBS containing 0.1% BSA and 2% DMSO). Thereafter, filter plates were sealed and a Fuji Film Imaging Plate (BAS-SR2025) was placed on top. The imaging plate was analyzed after overnight exposition using a Fuji Film BAS-5000. Non-specific signal was determined with samples containing ^18F-labeled Tau-reference binder in the presence of assay buffer without brain substrate and competitor. Specific binding was calculated by subtracting the non-specific signal from the measured samples signal. The unblocked ^18F-labeled Tau-binder signal was defined as total binding. IC50 values were calculated by Prism V7 (GraphPad) setting total binding to 100%.

MAO-A [4] = biological target: T3, MAO-A (Homo sapiens, UniProt P21397); assay: Binding affinity to MAO-A in human HC brain homogenate (3H-Harmine competition); parameters: key to Low affinity to MAO A (IC50 in human HC brain homogenate), grade: − poor; ∘ moderate; + good; ++ very good; +++ excellent; conditions: for IC50: human control brain homogenate, 3H-Harmine competition
T3 construct: human brain homogenate (without AD pathology, HC); from tissue; host or cells: human brain homogenate without AD pathology (HC)
T3 sequence (P21397 1-527): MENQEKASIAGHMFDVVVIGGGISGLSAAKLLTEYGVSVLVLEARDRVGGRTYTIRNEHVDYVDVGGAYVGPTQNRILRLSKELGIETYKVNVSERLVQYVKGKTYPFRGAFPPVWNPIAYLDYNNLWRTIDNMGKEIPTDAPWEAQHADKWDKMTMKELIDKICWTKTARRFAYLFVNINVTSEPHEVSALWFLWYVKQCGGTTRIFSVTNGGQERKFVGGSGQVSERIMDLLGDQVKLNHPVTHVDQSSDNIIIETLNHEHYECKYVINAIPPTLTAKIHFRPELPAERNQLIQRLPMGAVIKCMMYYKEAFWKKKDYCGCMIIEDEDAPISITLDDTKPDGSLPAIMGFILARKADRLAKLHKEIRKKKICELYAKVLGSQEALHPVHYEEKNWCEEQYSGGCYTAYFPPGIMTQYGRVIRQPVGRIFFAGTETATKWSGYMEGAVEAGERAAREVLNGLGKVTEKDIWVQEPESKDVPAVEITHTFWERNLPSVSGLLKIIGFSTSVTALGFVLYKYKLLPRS
Procedure: as §1, §2

[5] = biological target: T4, aggregated recombinant human K18 fibrils (Homo sapiens, UniProt P10636); assay: Binding affinity to K18 Tau aggregates (3H-labeled Tau binder competition); parameters: key to High affinity to Tau (IC50 using K18 Tau aggregates), grade: − poor; ∘ moderate; + good; ++ very good; +++ excellent; conditions: non-radioactive fluorine-19 derivatives; for IC50: read-out: IC50 using K18 Tau aggregates
T4 construct: aggregated recombinant human K18 fibrils
Procedure: Determination of the Binding Affinity to K18 Tau Aggregates
200 ng of aggregated recombinant human K18 fibrils were incubated with a dilution series of each test compound (1000 to 0.06 nM) in the presence of 3 nM of ^3H-labeled Tau binder. The samples were shaken at 110 rpm for 60 min at 37° C. Samples were then filtered through GF/B 96 well filter plates and washed twice with 200 μL assay buffer (PBS containing 0.1% BSA and 2% DMSO). Thereafter, 40 μL of MicroScint 40 was added to each well of the filter plate. Filter plates were sealed and then placed shaking at 110 rpm at 37° C. for 15 min. Measurement was done by TopCount NXT HTS (PerkinElmer). Non-specific signal was determined with samples containing ^3H-labeled Tau binder in the presence of 2.5 μM unlabeled Tau-reference binder and K18 fibrils. Specific binding was calculated by subtracting the non-specific signal from the measured samples signal. The unblocked ^3H-labeled Tau-binder signal was defined as total binding. IC50 values were calculated by Prism V7 (GraphPad) setting total binding to 100%.

[6] = Tracer signal in mouse brain homogenate compared to AD brain homogenate; type: binding; parameters: key to High signal to noise (% signal intensity in mouse brain homogenate compared to tracer signal in AD brain homogenate), grade: − poor; ∘ moderate; + good; ++ very good; +++ excellent; conditions: radioactive fluorine-18 derivatives
[7] = Tracer signal in HC brain homogenate compared to AD brain homogenate; type: binding, human; parameters: key to Signal to noise (% signal intensity in HC brain homogenate compared to tracer signal in AD brain homogenate), grade: − poor; ∘ moderate; + good; ++ very good; +++ excellent
[8] = mouse brain homogenate, 3H-Harmine competition
[9] = radioactive fluorine-18 derivatives

Sequence of Tau in human Alzheimer disease brain homogenate (P10636 623-708 limits assumed): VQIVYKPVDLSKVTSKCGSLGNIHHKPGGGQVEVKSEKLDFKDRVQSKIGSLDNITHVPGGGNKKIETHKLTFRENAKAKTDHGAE
Sequence of amyloid-beta in human Alzheimer disease brain homogenate (P05067 672-711 limits assumed): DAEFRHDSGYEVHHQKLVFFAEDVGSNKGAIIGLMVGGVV
T4 sequence (P10636 561-685 limits assumed): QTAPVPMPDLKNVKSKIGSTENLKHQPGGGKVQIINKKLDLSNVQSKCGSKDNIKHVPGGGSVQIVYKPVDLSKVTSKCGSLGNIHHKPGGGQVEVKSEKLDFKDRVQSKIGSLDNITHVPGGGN

Row | SMILES | IC50 (MAO-A [1]; [8]) [µM] | IC50 [2] [µM] | IC50 (MAO-B; human HC brain homogenate) [µM] | IC50 ([3]; human AD brain homogenate) [µM] | IC50 (MAO-A [4]) [µM] | IC50 [5] [µM] | Low affinity to MAO A (IC50 in mouse brain homogenate), grade (MAO-A [1]; mouse brain homogenate) | fold higher IC50 than compound 18F-1, MAO A in whole mouse brain homogenate (MAO-A [1]) [fold] | High affinity to Tau (IC50 in AD brain homogenate), grade [3] | further results
1 | Fc1ccc(-c2ccc3c(c2)[nH]c2ccncc23)cn1 [F-1, reference compound] | 0.0046 | > 1 | 0.078 | < 0.002 | 0.0059 | – | – | – | – | –
2 | Fc1cc(-c2ccc3c(c2)[nH]c2ccncc23)ccn1 [F-2] | 0.0514 | > 1 | 0.778 | < 0.002 | 0.0372 | – | – | – | – | –
3 | Fc1cc(-c2nc3[nH]c4ccncc4c3s2)ccn1 [F-3] | – | – | – | – | – | – | – | – | – | MAO-A binding affinity (in words) (MAO-A [1]; [8]): Low affinity; affinity towards tau (in words) ([3]; competition assay, human AD brain homogenate): good affinity
4 | [18F]c1ccc(-c2ccc3c(c2)[nH]c2ccncc23)cn1 [^18F-1, reference compound] | 0.0046 | > 1 | 0.078 | < 0.002 | 0.0059 | 0.0196 | – | – | – | –
5 | [18F]c1cc(-c2ccc3c(c2)[nH]c2ccncc23)ccn1 [^18F-2] | 0.0514 | > 1 | 0.778 | < 0.002 | 0.0372 | 0.003 | ∘ | 11 | +++ | % signal intensity in mouse brain homogenate compared to tracer signal in AD brain homogenate [6]: (57%); High signal to noise (% signal intensity in mouse brain homogenate compared to tracer signal in AD brain homogenate), grade [6]: +; less relative signal in HC brain homogenate ratio than 18F-1 ([7]; binding in AD brain homogenate and HC brain homogenate, difference to 18F-1): 19%; % signal intensity in HC brain homogenate compared to tracer signal in AD brain homogenate [7, 9]: (66%); Signal to noise (% signal intensity in HC brain homogenate compared to tracer signal in AD brain homogenate), grade [7, 9]: ∘; Low affinity to amyloid-beta (IC50 in AD brain homogenate), grade ([2]; AD brain homogenate): +++^a); Low affinity to MAO B (IC50 in human HC brain homogenate), grade (MAO-B; human HC brain homogenate): ++; fold higher IC50 than compound 18F-1, MAO B in HC brain homogenate (MAO-B; ratio to 18F-1): > 10 fold; High affinity to Tau (IC50 using K18 Tau aggregates), grade ([5]; K18 Tau aggregates): ++; Low affinity to MAO A (IC50 in human HC brain homogenate), grade (MAO-A [4]; human HC brain homogenate): ∘; fold higher IC50 than compound 18F-1, MAO A in human control brain homogenate (MAO-A [4]; ratio to 18F-1): 6.3 fold
6 | [18F]c1cc(-c2cc3[nH]c4ccncc4c3s2)ccn1 [^18F-3] | > 1 | – | – | 0.0134 | – | – | +++ | > 100 | + | –
